Read-outs that look alike come from different tables or passages of the source.
Experiments:
AsPC-1 = experiment: MTT antiproliferative assay, AsPC-1; format: cell-based, human; conditions: read-out: IC50 AsPC-1
MCF-7 = experiment: MTT antiproliferative assay, MCF-7; format: cell-based, human; conditions: read-out: IC50 MCF-7
HT-29 = experiment: MTT antiproliferative assay, HT-29; format: cell-based, human; conditions: read-out: IC50 HT-29
Mia-Paca-2 = experiment: MTT antiproliferative assay, Mia-Paca-2; format: cell-based, human; conditions: read-out: IC50 Mia-Paca-2
EBC-1 = experiment: MTT antiproliferative assay, EBC-1; format: cell-based, human; conditions: read-out: IC50 EBC-1
NIH3T3 = experiment: MTT assay, NIH3T3 non-cancer cell line; format: cell-based; conditions: read-out: IC50 NIH3T3
MET = MET (Homo sapiens, UniProt P08581); experiment: Radiometric kinase assay; format: biochemical; conditions: read-out: Kinase inhibition (%) MET
FLT4 (VEGFR3) = FLT4 (VEGFR3) (Homo sapiens, UniProt P35916); experiment: Radiometric kinase assay; format: biochemical; conditions: for inhibition at 10 µM: read-out: Kinase inhibition (%) FLT4 (VEGFR3)
NTRK1 (TrkA) = NTRK1 (TrkA) (Homo sapiens, UniProt P04629); experiment: Radiometric kinase assay; format: biochemical; conditions: read-out: Kinase inhibition (%) NTRK1 (TrkA)
FLT3 = FLT3 (Homo sapiens, UniProt P36888); experiment: Radiometric kinase assay; format: biochemical; conditions: read-out: Kinase inhibition (%) FLT3
KDR (VEGFR2) = KDR (VEGFR2) (Homo sapiens, UniProt P35968); experiment: Radiometric kinase assay; format: biochemical; conditions: read-out: Kinase inhibition (%) KDR (VEGFR2)
PDGFRA (PDGFRα) = PDGFRA (PDGFRα) (Homo sapiens, UniProt P16234); experiment: Radiometric kinase assay; format: biochemical; conditions: for inhibition at 10 µM: read-out: Kinase inhibition (%) PDGFRA (PDGFRα)
CDK2/cyclin A = CDK2/cyclin A (Homo sapiens, UniProt P24941); experiment: Radiometric kinase assay; format: biochemical; conditions: for inhibition at 10 µM: read-out: Kinase inhibition (%) CDK2/cyclin A
AsPC-1 cells [1] = experiment: Cell cycle test, RNase/PI flow cytometry; format: cell-based, human; conditions: AsPC-1, 3, 10, 30, 50 µM, 48 h
PDGFRB (PDGFRβ) = PDGFRB (PDGFRβ) (Homo sapiens, UniProt P09619); experiment: Radiometric kinase assay; format: biochemical; conditions: read-out: Kinase inhibition (%) PDGFRB (PDGFRβ)
AsPC-1 cells [2] = experiment: Apoptosis by Hoechst 33,258 staining; format: cell-based, human; conditions: AsPC-1, 10 and 30 µM, 48 h
AXL = target: T1, AXL (Homo sapiens, UniProt P30530); experiment: Radiometric kinase assay; format: biochemical; conditions: read-out: Kinase inhibition (%) AXL
T1 sequence (P30530 26-894): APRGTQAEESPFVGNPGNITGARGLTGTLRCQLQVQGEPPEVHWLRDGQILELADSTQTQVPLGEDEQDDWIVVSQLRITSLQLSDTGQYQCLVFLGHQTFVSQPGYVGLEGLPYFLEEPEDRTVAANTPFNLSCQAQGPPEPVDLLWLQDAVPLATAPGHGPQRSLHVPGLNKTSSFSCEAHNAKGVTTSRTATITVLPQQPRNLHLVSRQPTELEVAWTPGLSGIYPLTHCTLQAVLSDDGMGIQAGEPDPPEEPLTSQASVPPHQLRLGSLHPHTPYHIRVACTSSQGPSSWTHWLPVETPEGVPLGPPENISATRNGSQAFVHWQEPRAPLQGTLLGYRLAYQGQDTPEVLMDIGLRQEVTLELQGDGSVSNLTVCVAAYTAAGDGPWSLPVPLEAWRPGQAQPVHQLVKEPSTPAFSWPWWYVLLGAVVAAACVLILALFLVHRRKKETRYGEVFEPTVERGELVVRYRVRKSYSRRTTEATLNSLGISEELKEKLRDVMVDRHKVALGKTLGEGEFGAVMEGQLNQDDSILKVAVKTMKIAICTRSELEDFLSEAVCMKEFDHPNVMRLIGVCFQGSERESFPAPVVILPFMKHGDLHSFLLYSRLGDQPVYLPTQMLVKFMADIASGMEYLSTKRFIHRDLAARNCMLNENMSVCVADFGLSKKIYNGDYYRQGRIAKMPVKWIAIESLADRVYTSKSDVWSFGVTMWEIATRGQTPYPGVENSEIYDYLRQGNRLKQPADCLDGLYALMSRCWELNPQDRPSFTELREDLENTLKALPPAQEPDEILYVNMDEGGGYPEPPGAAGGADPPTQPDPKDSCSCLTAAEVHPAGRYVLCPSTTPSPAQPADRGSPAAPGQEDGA

NTRK2 (TrkB) = NTRK2 (TrkB) (Homo sapiens, UniProt Q16620); experiment: Radiometric kinase assay; format: biochemical; conditions: read-out: Kinase inhibition (%) NTRK2 (TrkB)
FLT1 (VEGFR1) = FLT1 (VEGFR1) (Homo sapiens, UniProt P17948); experiment: Radiometric kinase assay; format: biochemical; conditions: read-out: Kinase inhibition (%) FLT1 (VEGFR1)
[3] = tested on: EBC-1, AsPC-1, Mia-Paca-2, HT-29, MCF-7 cancer cells; experiment: MTT antiproliferative assay, cancer cell lines summarised; format: cell-based, human; conditions: MTT
[4] = MTT, 72 h, mean ± S.E.M. of 3–5 experiments

Sequence of FLT4 (VEGFR3) (P35916 25-1363): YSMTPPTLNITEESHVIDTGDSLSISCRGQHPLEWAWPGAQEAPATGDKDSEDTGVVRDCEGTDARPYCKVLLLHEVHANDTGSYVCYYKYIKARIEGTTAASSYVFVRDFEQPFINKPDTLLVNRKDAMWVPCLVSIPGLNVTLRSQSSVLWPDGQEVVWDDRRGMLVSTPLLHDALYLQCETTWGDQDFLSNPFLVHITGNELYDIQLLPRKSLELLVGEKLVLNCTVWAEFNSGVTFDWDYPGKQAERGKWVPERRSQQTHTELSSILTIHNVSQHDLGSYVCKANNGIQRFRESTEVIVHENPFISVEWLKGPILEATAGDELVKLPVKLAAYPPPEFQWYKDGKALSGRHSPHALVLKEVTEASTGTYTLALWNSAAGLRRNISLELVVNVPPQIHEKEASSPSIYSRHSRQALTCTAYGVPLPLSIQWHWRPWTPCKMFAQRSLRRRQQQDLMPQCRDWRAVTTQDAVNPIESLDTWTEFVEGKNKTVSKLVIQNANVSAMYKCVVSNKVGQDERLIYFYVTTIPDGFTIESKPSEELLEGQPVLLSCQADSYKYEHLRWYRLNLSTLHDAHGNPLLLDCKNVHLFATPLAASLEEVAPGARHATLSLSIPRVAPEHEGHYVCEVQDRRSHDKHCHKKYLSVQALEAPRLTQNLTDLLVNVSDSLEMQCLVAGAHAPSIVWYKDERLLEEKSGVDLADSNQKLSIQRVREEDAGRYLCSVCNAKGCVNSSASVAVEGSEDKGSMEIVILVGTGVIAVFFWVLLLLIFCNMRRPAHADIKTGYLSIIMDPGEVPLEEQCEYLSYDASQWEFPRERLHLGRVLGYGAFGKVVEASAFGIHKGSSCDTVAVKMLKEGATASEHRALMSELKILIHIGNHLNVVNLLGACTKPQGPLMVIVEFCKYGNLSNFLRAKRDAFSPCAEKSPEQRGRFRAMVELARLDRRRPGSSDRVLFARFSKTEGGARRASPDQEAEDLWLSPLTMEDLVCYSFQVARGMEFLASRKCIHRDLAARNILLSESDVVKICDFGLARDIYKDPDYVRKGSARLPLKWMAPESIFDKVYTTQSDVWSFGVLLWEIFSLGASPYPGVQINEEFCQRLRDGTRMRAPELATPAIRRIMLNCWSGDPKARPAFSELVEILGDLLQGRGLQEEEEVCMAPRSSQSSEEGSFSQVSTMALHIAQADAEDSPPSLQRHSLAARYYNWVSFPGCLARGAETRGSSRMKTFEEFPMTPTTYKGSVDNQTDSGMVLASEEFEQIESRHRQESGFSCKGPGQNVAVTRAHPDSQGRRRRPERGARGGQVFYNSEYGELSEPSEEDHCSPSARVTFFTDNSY
Sequence of PDGFRA (PDGFRα) (P16234 24-1089): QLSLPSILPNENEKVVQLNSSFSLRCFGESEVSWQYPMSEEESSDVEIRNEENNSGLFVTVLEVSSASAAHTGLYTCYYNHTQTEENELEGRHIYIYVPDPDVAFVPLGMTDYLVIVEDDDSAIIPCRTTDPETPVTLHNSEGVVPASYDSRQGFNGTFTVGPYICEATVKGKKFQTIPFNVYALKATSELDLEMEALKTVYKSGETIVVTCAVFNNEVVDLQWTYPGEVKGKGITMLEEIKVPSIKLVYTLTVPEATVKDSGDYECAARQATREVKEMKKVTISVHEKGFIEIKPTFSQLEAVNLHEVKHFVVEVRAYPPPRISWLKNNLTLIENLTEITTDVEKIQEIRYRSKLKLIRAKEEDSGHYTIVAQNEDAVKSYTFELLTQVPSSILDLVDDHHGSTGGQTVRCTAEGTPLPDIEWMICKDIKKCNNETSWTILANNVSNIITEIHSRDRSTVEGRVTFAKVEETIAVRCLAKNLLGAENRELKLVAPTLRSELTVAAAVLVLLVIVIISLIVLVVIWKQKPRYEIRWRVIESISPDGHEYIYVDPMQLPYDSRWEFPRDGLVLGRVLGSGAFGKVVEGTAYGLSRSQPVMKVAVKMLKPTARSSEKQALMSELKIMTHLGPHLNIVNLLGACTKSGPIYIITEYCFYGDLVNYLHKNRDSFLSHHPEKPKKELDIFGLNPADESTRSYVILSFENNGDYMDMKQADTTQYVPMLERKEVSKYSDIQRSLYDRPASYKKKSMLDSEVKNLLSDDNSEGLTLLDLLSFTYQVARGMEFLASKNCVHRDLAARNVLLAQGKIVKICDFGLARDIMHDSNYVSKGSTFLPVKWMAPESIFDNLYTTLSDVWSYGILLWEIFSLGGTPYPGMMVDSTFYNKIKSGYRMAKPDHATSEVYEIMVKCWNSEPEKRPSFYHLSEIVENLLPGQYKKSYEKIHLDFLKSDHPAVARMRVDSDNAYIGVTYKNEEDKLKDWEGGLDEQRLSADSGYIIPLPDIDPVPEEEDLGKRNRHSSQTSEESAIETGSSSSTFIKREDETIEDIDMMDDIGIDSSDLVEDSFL
Sequence of MET (P08581 25-1390): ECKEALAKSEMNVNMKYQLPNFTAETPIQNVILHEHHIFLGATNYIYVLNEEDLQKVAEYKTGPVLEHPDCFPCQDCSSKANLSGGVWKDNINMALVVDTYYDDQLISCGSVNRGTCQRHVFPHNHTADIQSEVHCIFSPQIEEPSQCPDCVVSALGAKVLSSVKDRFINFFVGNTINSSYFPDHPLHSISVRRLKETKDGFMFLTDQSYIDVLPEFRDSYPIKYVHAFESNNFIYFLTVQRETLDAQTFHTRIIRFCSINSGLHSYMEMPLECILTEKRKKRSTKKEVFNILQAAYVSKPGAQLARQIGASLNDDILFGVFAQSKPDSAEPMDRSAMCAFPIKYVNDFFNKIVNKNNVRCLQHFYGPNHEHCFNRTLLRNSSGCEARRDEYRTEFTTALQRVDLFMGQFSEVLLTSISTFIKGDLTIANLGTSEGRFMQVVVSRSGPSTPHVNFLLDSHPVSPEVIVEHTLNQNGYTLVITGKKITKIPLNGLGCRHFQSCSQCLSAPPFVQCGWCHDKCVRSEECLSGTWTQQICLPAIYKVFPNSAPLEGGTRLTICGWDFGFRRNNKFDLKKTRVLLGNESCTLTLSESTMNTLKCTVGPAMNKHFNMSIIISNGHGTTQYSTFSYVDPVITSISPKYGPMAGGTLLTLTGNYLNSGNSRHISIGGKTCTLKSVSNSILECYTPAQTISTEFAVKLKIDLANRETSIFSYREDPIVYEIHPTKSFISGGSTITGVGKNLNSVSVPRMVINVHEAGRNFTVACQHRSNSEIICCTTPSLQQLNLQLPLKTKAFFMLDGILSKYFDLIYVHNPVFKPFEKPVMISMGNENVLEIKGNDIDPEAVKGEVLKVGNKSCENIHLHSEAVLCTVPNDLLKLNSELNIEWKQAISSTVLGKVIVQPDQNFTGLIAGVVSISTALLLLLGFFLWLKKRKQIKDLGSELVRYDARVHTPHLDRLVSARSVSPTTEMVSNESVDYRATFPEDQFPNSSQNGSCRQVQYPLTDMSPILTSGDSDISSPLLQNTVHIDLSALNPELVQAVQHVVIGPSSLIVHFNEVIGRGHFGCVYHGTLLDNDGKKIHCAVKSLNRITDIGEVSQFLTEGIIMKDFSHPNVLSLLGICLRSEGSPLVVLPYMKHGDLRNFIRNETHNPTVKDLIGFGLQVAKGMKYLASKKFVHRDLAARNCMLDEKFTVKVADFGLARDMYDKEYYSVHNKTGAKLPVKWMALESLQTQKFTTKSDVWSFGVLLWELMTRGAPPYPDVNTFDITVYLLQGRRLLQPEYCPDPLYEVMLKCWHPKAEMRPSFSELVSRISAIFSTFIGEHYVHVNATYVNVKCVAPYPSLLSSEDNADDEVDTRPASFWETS
Sequence of KDR (VEGFR2) (P35968 20-1356): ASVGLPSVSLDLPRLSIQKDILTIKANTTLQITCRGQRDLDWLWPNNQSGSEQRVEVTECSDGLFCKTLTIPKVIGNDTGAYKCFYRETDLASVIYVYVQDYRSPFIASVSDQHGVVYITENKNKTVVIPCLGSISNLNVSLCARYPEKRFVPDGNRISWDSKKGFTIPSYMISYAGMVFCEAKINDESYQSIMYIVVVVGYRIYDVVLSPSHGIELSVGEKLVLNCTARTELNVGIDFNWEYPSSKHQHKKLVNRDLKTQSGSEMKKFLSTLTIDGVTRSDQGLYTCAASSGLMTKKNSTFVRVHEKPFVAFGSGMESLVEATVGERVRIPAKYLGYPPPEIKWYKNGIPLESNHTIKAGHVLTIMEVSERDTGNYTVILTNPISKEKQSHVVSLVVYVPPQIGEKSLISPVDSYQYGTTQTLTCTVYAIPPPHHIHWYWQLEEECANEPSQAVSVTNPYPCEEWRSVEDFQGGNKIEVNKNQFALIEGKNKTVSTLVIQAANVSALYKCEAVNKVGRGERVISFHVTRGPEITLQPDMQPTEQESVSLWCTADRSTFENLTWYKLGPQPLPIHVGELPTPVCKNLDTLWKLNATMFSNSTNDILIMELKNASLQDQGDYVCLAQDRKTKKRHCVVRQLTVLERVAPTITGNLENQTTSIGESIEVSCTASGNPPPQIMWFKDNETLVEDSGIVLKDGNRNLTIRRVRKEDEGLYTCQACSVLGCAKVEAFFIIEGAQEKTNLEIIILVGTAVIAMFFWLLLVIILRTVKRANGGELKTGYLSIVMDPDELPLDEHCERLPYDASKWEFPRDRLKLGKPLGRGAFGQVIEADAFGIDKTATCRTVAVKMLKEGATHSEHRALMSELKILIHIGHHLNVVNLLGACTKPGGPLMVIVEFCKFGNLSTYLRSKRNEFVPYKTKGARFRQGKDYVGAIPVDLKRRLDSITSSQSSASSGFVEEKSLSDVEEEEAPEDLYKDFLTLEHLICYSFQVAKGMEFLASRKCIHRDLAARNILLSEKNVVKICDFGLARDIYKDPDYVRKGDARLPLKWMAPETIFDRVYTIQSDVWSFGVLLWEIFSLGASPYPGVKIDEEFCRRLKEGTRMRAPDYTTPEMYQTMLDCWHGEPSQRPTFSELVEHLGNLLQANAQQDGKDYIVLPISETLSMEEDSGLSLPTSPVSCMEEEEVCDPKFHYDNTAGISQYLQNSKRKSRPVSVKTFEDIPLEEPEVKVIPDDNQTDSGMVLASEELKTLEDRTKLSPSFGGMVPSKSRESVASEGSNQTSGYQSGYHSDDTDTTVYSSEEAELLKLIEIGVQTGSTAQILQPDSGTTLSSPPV

Row | Compound | IC50 (AsPC-1; Homo sapiens, ASPC1, 72 h) [µM] | IC50 (MCF-7; Homo sapiens, MCF7, 72 h) [µM] | IC50 (HT-29; Homo sapiens, HT-29, 72 h) [µM] | IC50 (Mia-Paca-2; Homo sapiens, MIA PaCa-2, 72 h) [µM] | IC50 (EBC-1; Homo sapiens, EBC-1, 72 h) [µM] | IC50 (NIH3T3; Mus musculus, NIH3T3, 72 h) [µM] | other results
1 | COc1cc2nccc(Oc3ccc(NC(=O)C4(C(=O)Nc5ccc(F)cc5)CC4)cc3)c2cc1OC [Cabozantinib, reference compound] | 21.3 ± 2.03 | 17.8 ± 2.4 | 3.7 ± 0.4 | 7.4 ± 0.6 | 0.06 ± 0.01 |  | 
2 | N.N.[Cl][Pt][Cl] [Cisplatin, reference compound] |  |  |  |  |  |  | IC50 (AsPC-1; [4]): 5.4 ± 0.6 µM; IC50 (MCF-7; [4]): 43.1 ± 1.9 µM; IC50 (HT-29; [4]): 43.3 ± 17.3 µM; IC50 (Mia-Paca-2; [4]): 22.1 ± 6.2 µM; IC50 (NIH3T3; MTT, 72 h, non-cancer cell line, mean ± S.E.M.): 8.3 ± 1.4 µM; IC50 (EBC-1; [4]): 24 ± 5.5 µM
3 | CC(C)c1ccc(Cn2cc(COc3ccc(NC4=CC(=O)c5ccccc5C4=O)cc3)nn2)cc1 [Compound 4 g, 2-((4-((1-(4-Isopropylbenzyl)−1H-1,2,3-triazol-4-yl)methoxy)phenyl)amino) naphthalene-1,4-dione] | 12.8 ± 2.9 | 22.3 ± 3.8 | 4.9 ± 0.9 | 45 ± 8.2 | 2 ± 0.5 | 24.5 ± 5.2 | inhibition at 10 µM (MET): -11%; inhibition at 10 µM (FLT4 (VEGFR3)): 9%; inhibition at 10 µM (NTRK1 (TrkA)): 6%; inhibition at 10 µM (FLT3): -2%; inhibition at 10 µM (KDR (VEGFR2)): -10%; inhibition at 10 µM (PDGFRA (PDGFRα)): 29%; inhibition at 10 µM (CDK2/cyclin A): 1%
4 | CC(C)(C)c1ccc(Cn2cc(COc3ccc(NC4=CC(=O)c5ccccc5C4=O)cc3)nn2)cc1 [Compound 4 h, 2-((4-((1-(4-(Tert-butyl)benzyl)−1H-1,2,3-triazol-4yl)methoxy)phenyl)amino) naphthalene-1,4-dione] | 16.2 ± 2 | 20.3 ± 0.2 | 2.5 ± 0.7 | 31.3 ± 3.3 | 8.7 ± 1.3 | 46.7 ± 3.2 | 
5 | O=C1C=C(Nc2ccc(OCc3cn(Cc4ccc(F)cc4)nn3)cc2)C(=O)c2ccccc21 [Compound 4c, 2-((4-((1-(4-Fluorobenzyl)−1H-1,2,3-triazol-4-yl)methoxy)phenyl)amino) naphthalene-1,4-dione] | 34.8 ± 15.3 | 26.9 ± 0.2 | > 100 | 61 ± 6.6 | 13.7 ± 3.3 | 20.1 ± 3.3 | 
6 | O=C1C=C(Nc2ccc(OCc3cn(Cc4ccc(Cl)cc4)nn3)cc2)C(=O)c2ccccc21 [Compound 4d, 2-((4-((1-(4-Chlorobenzyl)−1H-1,2,3-triazol-4-yl)methoxy)phenyl)amino) naphthalene-1,4-dione] | 20.8 ± 6.8 | 15.9 ± 4.6 | 3.1 ± 0.4 | 21.3 ± 3.6 | 1.9 ± 0.3 | 14.4 ± 1.9 | 
7 | O=C1C=C(Nc2ccc(OCc3cn(Cc4cccc(Cl)c4)nn3)cc2)C(=O)c2ccccc21 [Compound 4f, 2-((4-((1-(3-Chlorobenzyl)−1H-1,2,3-triazol-4-yl)methoxy)phenyl)amino) naphthalene-1,4-dione] | 10.5 ± 2.6 | > 100 | 1.9 ± 0.4 | 42.1 ± 12.6 | 2.3 ± 0.4 | 29.8 ± 7.3 | 
8 | Cc1ccc(Cn2cc(COc3ccc(NC4=CC(=O)c5ccccc5C4=O)cc3)nn2)cc1 [Compound 4i, 2-((4-((1-(4-Methylbenzyl)−1H-1,2,3-triazol-4-yl)methoxy)phenyl)amino) naphthalene-1,4-dione] | 5.4 ± 0.9 | 13.9 ± 0.7 | 1.3 ± 0.5 | 20.6 ± 6.2 | 2.5 ± 0.3 | 25.5 ± 6.1 | Effect on cell cycle distribution (S and G2/M phases) (AsPC-1 cells [1]): dose-dependently increased the number of cells in the S phase and simultaneously reduced the cells in G2/M phase; inhibition at 10 µM (MET): 16%; IC50 (FLT4 (VEGFR3)): 1.336 ± 0.006 µM; inhibition at 10 µM (FLT4 (VEGFR3)): 87%; inhibition at 10 µM (PDGFRB (PDGFRβ)): 5%; Apoptosis induction (nuclear morphology) (AsPC-1 cells [2]): characteristic features of apoptosis including densely packed chromatin within the nucleus as well as nuclear fragmentation; inhibition at 10 µM (KDR (VEGFR2)): 28%; IC50 (PDGFRA (PDGFRα)): 0.22 ± 0.009 µM; inhibition at 10 µM (PDGFRA (PDGFRα)): 74%; inhibition at 10 µM (AXL): 8%; inhibition at 10 µM (NTRK2 (TrkB)): 19%; inhibition at 10 µM (FLT1 (VEGFR1)): -17%; IC50 (CDK2/cyclin A): 11.3 ± 0.477 µM; inhibition at 10 µM (CDK2/cyclin A): 51%
9 | O=C1C=C(Nc2ccc(OCc3cn(CCN4C(=O)c5ccccc5C4=O)nn3)cc2)C(=O)c2ccccc21 [Compound 4j, 2-(2-(4-((4-((1,4-Dioxo-1,4-dihydronaphthalen-2-yl)amino)phenoxy)methyl)−1H-1,2,3-triazol-1-yl)ethyl)isoindoline-1,3-dione] | > 100 | > 100 | > 50 | > 100 | > 50 |  | Antiproliferative activity against cancer cell lines (in words) [3]: devoid of any antiproliferative potential against all cancer cells
10 | COc1cccc2c1C(=O)c1c(O)c3c(c(O)c1C2=O)C[C@@](O)(C(=O)CO)C[C@@H]3O[C@H]1C[C@H](N)[C@H](O)[C@H](C)O1 [Doxorubicin, reference compound] | 1.73 ± 0.2 | 0.137 ± 0.0063 | 0.6 ± 0.2 | 0.0881 ± 0.0526 | 0.5 ± 0.1 | 0.013 ± 0.0021 | 
